Test results taken from PubChem BioAssay AID2060492 (Molecular Pharmacology Branch, DTP, NCI, 2025).

Tested on: 695427-040-R-J1-PDC complex spheroids, viability percent T/C
Experiment: Anticancer human tumor 695427-040-R-J1-PDC patient-derived colon adenocarcinoma cell line growth inhibition [GQUAD]
Conditions: for IC50: curve of first compound; for viability, T/C: stronger effect = lower value
Excerpt: DNA G-quadruplex Stabilizer Agents in Combinations in Complex Spheroids
A high-throughput screen of multi-cell type tumor spheroids was designed to identify active combinations of DNA G-quadruplex stabilizer agents and targeted small molecules. Complex spheroids include a stromal component modeled by human endothelial cells (HUVEC) and fibroblasts modeled by human mesenchymal stem cells (MSCs). The concentration ranges selected for each drug and investigational agent were based upon clinically achievable concentrations if the clinical Cmax of the agent was known.
Compounds. The drugs and investigational agents: pidnarulex (CX-5461; NSC782164), APTO-253 (NSC789042), BRACO-19 (NSC847499), peposertib (NSC802822), ceralasertib (NSC780249), elimusertib (NSC800525), camonsertib (NSC841442), AZD-1390 (NSC803789), olaparib (NSC753686), talazoparib (NSC767125), ART-558 (NSC835418), sotorasib (NSC818433), MRTX-1133 (NSC836407), SN-38 (NSC673596), topotecan (NSC609699), etoposide (NSC141540), doxorubicin (NSC123127), gemcitabine (NSC613327), 5-fluorouracil (NSC19893), paclitaxel (NSC125973), vemurafenib (NSC761431), panobinostat (NSC761190), R-306465 (JNJ-16241199; NSC773264), adavosertib (NSC754352), TP-3654 (NSC805149), carboplatin (NSC241240), KSQ-4279 (NSC840948), and staurosporine (NSC755774) were obtained from the National Cancer Institute (NCI) Developmental Therapeutics Program Chemical Repository (34). The FDA-approved anticancer drug set is available from the NCI Developmental Therapeutics Program. […] The stock solutions were prepared in dimethyl sulfoxide (DMSO, Sigma-Aldrich, St. Louis, MO, cat. D2650) at 800-fold the tested concentration and stored at -70 degrees C prior to their use. All drugs and investigational agents were tested over a range starting from a high concentration at or near the clinical Cmax and decreasing in half-log increments. If the clinical Cmax for an agent had not been determined, the highest concentration tested was 10 microM.
2.3 Cell Culture. All cells were maintained in an incubator at 37 degrees C and 5% CO2 with 95% humidity. The PDC lines were cultured according to standard operating procedures established by the NCI PDMR. All PDCs were thawed and cultured in Matrigel-coated flasks prepared with a working solution of 1X Ham's F-12 nutrient mix, without supplementation (Invitrogen, cat. 11765054), 100 U/mL penicillin-streptomycin (Invitrogen, cat. 15140122), and 2.5% Matrigel (Corning Inc., cat. 354248) for the first three passages. The 857933-349-R-J2-PDC line was cultured in 6C/Colon 1B media, which includes advanced DMEM/F-12 (Thermo Fisher Scientific, cat. 12634028), 10 mM HEPES (Thermo Fisher Scientific, cat. 15630080), 1X GlutaMAX supplement (Thermo Fisher Scientific, cat. 35050061), 0.1 mg/mL primocin (InvivoGen, cat. ant-pm-2), 10% defined fetal bovine serum, heat inactivated (HyClone Laboratories Inc., cat. SH30070.03HI), 50% L-WRN conditioned media (ATCC, cat. CRL-3276), 1.25 mM N-Acetyl-L-cysteine (Sigma-Aldrich, cat. A9165), 10 mM nicotinamide (Sigma-Aldrich, cat. N0636), 1X B-27 supplement (Thermo Fisher Scientific, cat. 17504044), 1X N-2 supplement (Thermo Fisher Scientific, cat. 17502048), 10 microM Y-27632 dihydrochloride (Tocris Bioscience, cat. 1254), and 50 ng/mL human EGF recombinant protein (Thermo Fisher Scientific, cat. PHG0311). The 485176-168-R4-J1-PDC line was cultured in Panc media, which includes all 6C/Colon 1B media components plus 100 ng/mL human FGF-10 (Thermo Fisher Scientific, cat. 100-26), 500 nM SB-431542 (Selleckchem, cat. S1067), and gastrin (Tocris, cat. 3006).
[…]

[1] = second compound 0.0316 µM, first compound 0.0316 µM
[2] = second compound 0.0316 µM, first compound 0.1 µM
[3] = second compound 0.0316 µM, first compound 0.316 µM
[4] = second compound 0.0316 µM, first compound 1 µM
[5] = second compound 0.0316 µM, first compound 3.16 µM
[6] = second compound 0.0316 µM, first compound 10 µM
[7] = second compound 0.1 µM, first compound 0.0316 µM
[8] = second compound 0.1 µM, first compound 0.1 µM
[9] = second compound 0.1 µM, first compound 0.316 µM
[10] = second compound 0.1 µM, first compound 1 µM
[11] = second compound 0.1 µM, first compound 3.16 µM
[12] = second compound 0.1 µM, first compound 10 µM
[13] = second compound 0.316 µM, first compound 0.0316 µM
[14] = second compound 0.316 µM, first compound 0.1 µM
[15] = second compound 0.316 µM, first compound 0.316 µM
[16] = second compound 0.316 µM, first compound 1 µM
[17] = second compound 0.316 µM, first compound 3.16 µM
[18] = second compound 0.316 µM, first compound 10 µM
[19] = second compound 1 µM, first compound 0.0316 µM
[20] = second compound 1 µM, first compound 0.1 µM
[21] = second compound 1 µM, first compound 0.316 µM
[22] = second compound 1 µM, first compound 1 µM
[23] = second compound 1 µM, first compound 3.16 µM
[24] = second compound 1 µM, first compound 10 µM
[25] = second compound 3.16 µM, first compound 0.0316 µM
[26] = second compound 3.16 µM, first compound 0.1 µM
[27] = second compound 3.16 µM, first compound 0.316 µM
[28] = second compound 3.16 µM, first compound 1 µM
[29] = second compound 3.16 µM, first compound 3.16 µM
[30] = second compound 3.16 µM, first compound 10 µM
[31] = second compound 10 µM, first compound 0.0316 µM
[32] = second compound 10 µM, first compound 0.1 µM
[33] = second compound 10 µM, first compound 0.316 µM
[34] = second compound 10 µM, first compound 1 µM
[35] = second compound 10 µM, first compound 3.16 µM
[36] = second compound 10 µM, first compound 10 µM
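Further: spheroids exposed to compounds for seven days before readout.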

O=C(NO)c1cnc(N2CCN(S(=O)(=O)c3ccc4ccccc4c3)CC2)nc1 + Cc1[nH]c2ccc(F)cc2c1-c1nc2c3cccnc3c3ncccc3c2[nH]1
IC50 (second compound 0.0316 µM): > 10 µM
IC50 (second compound 0.1 µM): > 10 µM
IC50 (second compound 0.316 µM): > 10 µM
IC50 (second compound 1 µM): > 10 µM
IC50 (second compound 3.16 µM): > 10 µM
IC50 (second compound 10 µM): > 10 µM
viability, T/C [1]: 90.4%
viability, T/C [2]: 106%
viability, T/C [3]: 94.3%
viability, T/C [4]: 87.5%
viability, T/C [5]: 78.7%
viability, T/C [6]: 74.7%
viability, T/C [7]: 98.4%
viability, T/C [8]: 91.1%
viability, T/C [9]: 83%
viability, T/C [10]: 87%
viability, T/C [11]: 81.3%
viability, T/C [12]: 68.5%
viability, T/C [13]: 99.1%
viability, T/C [14]: 89.4%
viability, T/C [15]: 81.9%
viability, T/C [16]: 82.6%
viability, T/C [17]: 80.5%
viability, T/C [18]: 65.6%
viability, T/C [19]: 95%
viability, T/C [20]: 86%
viability, T/C [21]: 84.8%
viability, T/C [22]: 82%
viability, T/C [23]: 77.9%
viability, T/C [24]: 61.5%
viability, T/C [25]: 76.5%
viability, T/C [26]: 71.2%
viability, T/C [27]: 71.2%
viability, T/C [28]: 73.5%
viability, T/C [29]: 57.3%
viability, T/C [30]: 54.5%
viability, T/C [31]: 69.6%
viability, T/C [32]: 73.1%
viability, T/C [33]: 73.8%
viability, T/C [34]: 60.5%
viability, T/C [35]: 54.3%
viability, T/C [36]: 50.5%

O=c1[nH]cc(F)c(=O)[nH]1 + Cc1[nH]c2ccc(F)cc2c1-c1nc2c3cccnc3c3ncccc3c2[nH]1
IC50 (second compound 0.0316 µM): > 10 µM
IC50 (second compound 0.1 µM): > 10 µM
IC50 (second compound 0.316 µM): > 10 µM
IC50 (second compound 1 µM): > 10 µM
IC50 (second compound 3.16 µM): > 10 µM
IC50 (second compound 10 µM): > 10 µM
viability, T/C [1]: 102%
viability, T/C [2]: 91.1%
viability, T/C [3]: 99.1%
viability, T/C [4]: 92.3%
viability, T/C [5]: 89%
viability, T/C [6]: 108%
viability, T/C [7]: 98.4%
viability, T/C [8]: 77.3%
viability, T/C [9]: 92.2%
viability, T/C [10]: 82.2%
viability, T/C [11]: 94.8%
viability, T/C [12]: 98.6%
viability, T/C [13]: 104%
viability, T/C [14]: 74.1%
viability, T/C [15]: 89.1%
viability, T/C [16]: 62.4%
viability, T/C [17]: 98.8%
viability, T/C [18]: 87%
viability, T/C [19]: 84.5%
viability, T/C [20]: 91.8%
viability, T/C [21]: 76.2%
viability, T/C [22]: 82.3%
viability, T/C [23]: 88.2%
viability, T/C [24]: 89.2%
viability, T/C [25]: 82.1%
viability, T/C [26]: 81.7%
viability, T/C [27]: 83.7%
viability, T/C [28]: 69.8%
viability, T/C [29]: 74.1%
viability, T/C [30]: 66.3%
viability, T/C [31]: 59.8%
viability, T/C [32]: 73%
viability, T/C [33]: 75.8%
viability, T/C [34]: 75.9%
viability, T/C [35]: 74.1%
viability, T/C [36]: 78.3%

C=CC(=O)N1CCN(c2nc(=O)n(-c3c(C)ccnc3C(C)C)c3nc(-c4c(O)cccc4F)c(F)cc23)C(C)C1 (stereo unspecified) + Cc1cnc(CNC(=O)c2c(=O)c3ccc(N4CCCN(C)CC4)nc3n3c2sc2ccccc23)cn1
IC50 (second compound 0.0316 µM): > 10 µM
IC50 (second compound 0.1 µM): > 10 µM
IC50 (second compound 0.316 µM): > 10 µM
IC50 (second compound 1 µM): > 10 µM
IC50 (second compound 3.16 µM): < 0.0316 µM
IC50 (second compound 10 µM): < 0.0316 µM
viability, T/C [1]: 103%
viability, T/C [2]: 77%
viability, T/C [3]: 95.1%
viability, T/C [4]: 68.5%
viability, T/C [5]: 75.7%
viability, T/C [6]: 71.6%
viability, T/C [7]: 89.2%
viability, T/C [8]: 81.7%
viability, T/C [9]: 82.3%
viability, T/C [10]: 67.7%
viability, T/C [11]: 102%
viability, T/C [12]: 90.9%
viability, T/C [13]: 85.7%
viability, T/C [14]: 78.7%
viability, T/C [15]: 70.5%
viability, T/C [16]: 73.9%
viability, T/C [17]: 92.6%
viability, T/C [18]: 83.8%
viability, T/C [19]: 67.6%
viability, T/C [20]: 59.4%
viability, T/C [21]: 60%
viability, T/C [22]: 65.1%
viability, T/C [23]: 77.6%
viability, T/C [24]: 79.7%
viability, T/C [25]: 37.7%
viability, T/C [26]: 50.9%
viability, T/C [27]: 54.2%
viability, T/C [28]: 54.4%
viability, T/C [29]: 64.1%
viability, T/C [30]: 57.5%
viability, T/C [31]: 34.2%
viability, T/C [32]: 41.6%
viability, T/C [33]: 44.5%
viability, T/C [34]: 44.7%
viability, T/C [35]: 58.6%
viability, T/C [36]: 49.7%
